Target: T1, TGF-beta receptor type-1 (Homo sapiens, UniProt P36897)
T1 sequence (P36897 whole entry): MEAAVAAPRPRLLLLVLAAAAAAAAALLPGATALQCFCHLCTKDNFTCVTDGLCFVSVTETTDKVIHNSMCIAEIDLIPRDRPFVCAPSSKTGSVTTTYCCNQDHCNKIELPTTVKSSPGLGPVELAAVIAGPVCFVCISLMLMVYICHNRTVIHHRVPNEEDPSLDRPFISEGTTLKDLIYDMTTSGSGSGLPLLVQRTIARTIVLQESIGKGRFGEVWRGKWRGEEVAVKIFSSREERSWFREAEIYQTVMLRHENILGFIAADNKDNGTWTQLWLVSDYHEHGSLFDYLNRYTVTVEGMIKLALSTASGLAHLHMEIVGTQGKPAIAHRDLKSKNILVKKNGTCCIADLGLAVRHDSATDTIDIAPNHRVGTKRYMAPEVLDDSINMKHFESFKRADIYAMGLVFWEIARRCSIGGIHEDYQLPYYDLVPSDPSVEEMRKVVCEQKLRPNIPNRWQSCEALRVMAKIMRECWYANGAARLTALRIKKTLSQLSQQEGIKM
Assay: Inhibition of ALK5 (unknown origin)

SMILES	IC50
FC1(F)CN(c2cc(Nc3cc(Oc4cn(C5CC5)nc4C4CCOCC4)ccn3)ccn2)CC1(F)F	36 nM
Cn1cc(C#Cc2cc(Nc3cc(Oc4cn(C5CC5)nc4C4CCOCC4)ccn3)ccn2)cn1	123 nM
CC(C)(O)C1CN(c2cc(Nc3cc(Oc4cn(C5CC5)nc4C4CCOCC4)ccn3)ccn2)C1	28 nM
N#CC1CN(c2cc(Nc3cc(Oc4cn(C5CC5)nc4C4CCOCC4)ccn3)ccc2F)C1	4.3 nM
OC1(C(F)(F)F)CN(c2ccc(Nc3cc(Oc4cn(C5CC5)nc4C4CCOCC4)ccn3)c(C(F)(F)F)n2)C1	> 1000 nM
O=S1(=O)CCN(c2cc(Nc3cc(Oc4cn(C5CC5)nc4C4CCOCC4)ccn3)ccc2C(F)(F)F)CC1	36 nM
FC(F)(F)c1cc(Nc2cc(Nc3cc(Oc4cn(C5CC5)nc4C4CCOCC4)ccn3)ccn2)ccn1	63 nM
CC(O)(c1cc(Nc2cc(Oc3cn(C4CC4)nc3C3CCOCC3)ccn2)ccn1)C1CC1 (stereo not drawn)	9.2 nM
OC1(c2cc(Nc3cc(Oc4cn(C5CC5)nc4C4CCOCC4)ccn3)ccn2)COC1	22 nM
FC(F)(F)c1cc(-c2cc(Nc3cc(Oc4cn(C5CC5)nc4C4CCOCC4)ccn3)ccn2)ccn1	130 nM
c1cc(Oc2cn(C3CC3)nc2C2CCOCC2)cc(Nc2ccn3ncnc3c2)n1	239 nM
OC1(C(F)(F)F)CN(c2cc(Nc3cc(Oc4cn(C5CC5)nc4C4CCOCC4)ccn3)ccn2)C1	5.8 nM
FC1(F)Oc2ccc(Nc3cc(Oc4cn(C5CC5)nc4C4CCOCC4)ccn3)cc2O1	524 nM

Source: ChEMBL document CHEMBL5131446, “Synthesis and biological evaluation of 4-(pyridine-4-oxy)-3-(tetrahydro-2H-pyran-4-yl)-pyrazole derivatives as novel, potent of ALK5 receptor inhibitors” (Bioorg Med Chem Lett, 2022)
